Test results as given in patent US10130682B2, “Methods of using pigment epithelium derived factor (PEDF) for the treatment and prevention of agent-induced gonadal or uterine toxicity” (Ramot at Tel-Aviv University Ltd., priority 2014, dated 2018).

Columns and labels:
[1] = tested on: PEDF mRNA; test: PEDF mRNA level (qPCR) in LH-15 cells exposed to H2O2; format: cell-based, rat; conditions: H2O2, 24 hours
Method: (§1) Rat granulosa cell line LH-15 [Suh et al. J Cell Biol (1992) 119: 439-450] was cultured in hormone-free DMEM-F12 medium, supplemented with penicillin (100 IU/ml; Biological Industries), streptomycin ([…]; Biological Industries) and 10% charcoal-stripped fetal bovine serum (CS-FBS; Invitrogen) (culture medium), as described previously (Breckwoldt et al. 1996, Sasson & Amsterdam 2002). Cells were serum-starved for 16 hours (0.1% CS-FBS) prior to and during recombinant PEDF (rPEDF) stimulation or incubated in 2% CS-FBS during H2O2 stimulation.
(§2) Total RNA was isolated from various tissues (ovaries, eyes) or from granulosa cells, using Trizol reagent (Invitrogen) according to manufacturer's instructions, and quantified with the Nano-Drop spectrophotometer (ND-1000; Thermo Scientific). First-strand cDNA was produced by RT (Maxima™ Reverse transcriptase, Thermo Scientific) from a total of 1 μg RNA, using oligo-dt primers (Thermo Scientific). DNA was amplified using 1 μl RT reaction and 50 pmol gene-specific primers in ReadyMix™ mixture (Sigma). […] Changes in the level of expression of mRNA were detected by SYBR green reagent (SYBR® Green PCR Master Mix, ABI, Carlsbad, Calif., USA) along with 15 ng cDNA and specific primers, on a StepOnePlus Real-Time PCR System (Applied Biosystems, Foster City, Calif., USA).

[2] = tested on: SOD-1; test: SOD-1 mRNA level (qPCR) in LH-15 cells under H2O2; format: cell-based, rat; conditions: H2O2 treatment alone, 24 hours
Method: as §1, §2

[3] = tested on: LH-15 cells; test: MTT cell viability assay in LH-15 granulosa cells under H2O2; format: cell-based, rat; conditions: H2O2 100-500 μM, 24 hours, 2% serum
Method: as §1
Equal amount of LH-15 cells were seeded onto 6-well plates to a final volume of 500 μl. Following treatments, each well was incubated for 30 minutes with 10 μl of MTT [3-(4, 5-Dimethylthiazol-2-yl)-2, 5-diphenyltetrazolium bromide; 5 mg/ml] followed by an additional 2-4 hours incubation period at 37° C. The reaction was terminated by addition of 110 μl HCl (0.07 M in isopropanol) and OD 560 nm was measured by the SpectraMax 190 microplate reader ([…], Eugene, Oreg., USA).

[4] = tested on: BAX; test: BAX protein level (western blot) in LH-15 cells under H2O2; format: cell-based, rat; conditions: H2O2 treatment alone, 24 hours
Method: as §1
Samples were homogenized in cold lysis buffer (20 mM HEPES, 150 mM NaCl and 0.2% Igepal; sigma) and centrifuged at 12,000 rpm, for 15 min, at 4° C.). Proteins were separated by sodium dodecyl sulfate polyacrylamide gel electrophoresis (SDS-PAGE; 10%; Bio-Rad, Israel). Separated proteins were transferred onto nitrocellulose membranes (Whatman GmbH, Germany) in a mini tank transfer unit (TE 22, Amersham, UK). Approximate molecular masses were determined by comparison with the migration of pre-stained protein standards (Bio-Rad). Blots were blocked for 1 hour in TBST (10 mM Tris-HCl, pH=8.0, 150 mM NaCl, 0.05% Tween 20) containing 5% skim-milk (Alba, N.Y., USA) followed by an over-night incubation at 4° C. with primary antibodies. […] Intensity of the protein bands was quantified by Image J […] (NIH).

[5] = tested on: GPX-1; test: GPX-1 mRNA level (qPCR) in LH-15 cells under H2O2; format: cell-based, rat; conditions: H2O2 treatment alone, 24 hours
Method: as §1, §2

[6] = tested on: PNPLA2; test: Uterine PNPLA2 mRNA (qPCR), prolonged tamoxifen model; format: in vivo, mouse; conditions: one month of tamoxifen treatment
[7] = tested on: PEDF; test: Uterine PEDF protein (western blot), prolonged tamoxifen model; format: in vivo; conditions: tamoxifen 2.5 μg/mouse 5 days per week for one month
[8] = tested on: OVX ICR mice; test: Uterine weight, prolonged tamoxifen model in ovariectomized mice; format: in vivo, mouse; conditions: tamoxifen 2.5 μg/mouse 5 days per week for one month
Method: (§3) DXR damage was evaluated in 7 weeks ICR female mice following treatment for superovulation with pregnant mares' serum (PMSG, 7 IU) SC on day 0 and human chorionic gonadotropin (hCG, […]) SC on day 2. On day 1, mice were administered with DXR (6 mg/kg) or saline (control) IV. Mice ovaries were retrieved on day 3 (FIG. 1A). The ability of rPEDF to overcome the destructive effect of DXR 7 weeks ICR female mice were treated with DXR (6 mg/kg) or saline (control) IV on day 0, rPEDF (2 mg/kg) or TRIS (control) was administered SC on day 1, followed by induction for superovulation with PMSG (7 IU) SC on day 4 and hCG (7 IU) SC on day 6. Mice ovaries were retrieved on day 7 (FIG. 2A). […] Mice uteri were excised at day 7. […] Mice treated with tamoxifen alone served as control. […] Mice treated with tamoxifen alone served as control.
(§4) At the end of each experiment, uteri were isolated, excised and weighed.

[9] = tested on: ERα; test: Uterine ERα mRNA (qPCR), prolonged tamoxifen model; format: in vivo, mouse; conditions: prolonged tamoxifen treatment
[10] = tested on: progesterone receptor (PR); test: Uterine PR mRNA (qPCR), sub-acute tamoxifen model; format: in vivo, mouse; conditions: sub-acute tamoxifen treatment
[11] = tested on: CD34; test: CD34 immunohistochemical staining of uterine blood vessels, prolonged tamoxifen model; format: in vivo, mouse; conditions: prolonged tamoxifen alone vs control
Method: as §3
Paraffin-embedded sections were deparaffinized, microwave heated while being subjected to an antigen retrieval agent (H-3300, Vector Laboratories Inc., Burlingame, Calif., USA), cooled on ice to room temperature, rinsed in PBS, incubated for 1 hour with PBSTg (0.2% Tween and gelatin in PBS), washed with PBS, blocked for 10 minutes in blocking solution (Cell Marque Corporation, Calif., USA) and incubated overnight with anti PNPLA2 or anti-CD34 primary antibodies. […]

[12] = tested on: progesterone receptor (PR); test: Uterine PR mRNA (qPCR), prolonged tamoxifen model; format: in vivo, mouse; conditions: prolonged tamoxifen treatment
Method: DXR damage was evaluated in 7 weeks ICR female mice following treatment for superovulation with pregnant mares' serum (PMSG, 7 IU) SC on day 0 and human chorionic gonadotropin (hCG, […]) SC on day 2. On day 1, mice were administered with DXR (6 mg/kg) or saline (control) IV. Mice ovaries were retrieved on day 3 (FIG. 1A). The ability of rPEDF to overcome the destructive effect of DXR 7 weeks ICR female mice were treated with DXR (6 mg/kg) or saline (control) IV on day 0, rPEDF (2 mg/kg) or TRIS (control) was administered SC on day 1, followed by induction for superovulation with PMSG (7 IU) SC on day 4 and hCG (7 IU) SC on day 6. Mice ovaries were retrieved on day 7 (FIG. 2A). […] Mice uteri were excised at day 7. […] Mice treated with tamoxifen alone served as control. […]
as §2, with “First-strand cDNA was produced by RT (Maxima™ Reverse transcriptase, Thermo Scientific) from a total of 1 μg RNA, using oligo-dt primers (Thermo Scientific).” left out

[13] = tested on: PNPLA2; test: Uterine PNPLA2 mRNA (qPCR), sub-acute tamoxifen model; format: in vivo, mouse; conditions: sub-acute tamoxifen treatment
Method: DXR damage was evaluated in 7 weeks ICR female mice following treatment for superovulation with pregnant mares' serum (PMSG, 7 IU) SC on day 0 and human chorionic gonadotropin (hCG, […]) SC on day 2. On day 1, mice were administered with DXR (6 mg/kg) or saline (control) IV. Mice ovaries were retrieved on day 3 (FIG. 1A). […] Mice ovaries were retrieved on day 7 (FIG. 2A). […] Mice uteri were excised at day 7.
Total RNA was isolated from various tissues (ovaries, eyes) or from granulosa cells, using Trizol reagent (Invitrogen) according to manufacturer's instructions, and quantified with the Nano-Drop spectrophotometer (ND-1000; Thermo Scientific). First-strand cDNA was produced by RT (Maxima™ Reverse transcriptase, Thermo Scientific) from a total of 1 μg RNA, using oligo-dt primers (Thermo Scientific). DNA was amplified using 1 μl RT reaction and 50 pmol gene-specific primers in ReadyMix™ mixture (Sigma). Polymerase Chain Reaction (PCR) products were separated by 1.5% agarose gel electrophoresis and visualized by ethidium bromide staining. Changes in the level of expression of mRNA were detected by SYBR green reagent (SYBR® Green PCR Master Mix, ABI, Carlsbad, Calif., USA) along with 15 ng cDNA and specific primers, on a StepOnePlus Real-Time PCR System (Applied Biosystems, Foster City, Calif., USA).

[14] = tested on: ovariectomized (OVX) ICR mice; test: Uterine weight, sub-acute tamoxifen model in ovariectomized mice; format: in vivo, mouse; parameters: uterine weight: dose or concentration left out as unconfirmed; conditions: tamoxifen 0.3-3.3 daily for 7 days
Method: as §3, §4

[15] = tested on: Laminin receptor; test: Uterine Laminin receptor mRNA (qPCR), prolonged tamoxifen model; format: in vivo, mouse; conditions: one month of tamoxifen treatment
[16] = tested on: PEDF; test: Uterine PEDF protein (western blot), sub-acute tamoxifen model; format: in vivo, mouse; conditions: tamoxifen daily for 7 days, increasing doses
[17] = tested on: ERα; test: Uterine ERα mRNA (qPCR), sub-acute tamoxifen model; format: in vivo, mouse; conditions: sub-acute tamoxifen treatment
[18] = tested on: Laminin receptor; test: Uterine Laminin receptor mRNA (qPCR), sub-acute tamoxifen model; format: in vivo, mouse; conditions: sub-acute tamoxifen treatment
[19] = tested on: VEGF; test: Uterine VEGF protein (western blot), sub-acute tamoxifen model; format: in vivo, mouse; conditions: tamoxifen daily for 7 days, various concentrations
Method: as §3
(§5) Samples were homogenized in cold lysis buffer (20 mM HEPES, 150 mM NaCl and 0.2% Igepal; sigma) and centrifuged at 12,000 rpm, for 15 min, at 4° C.). Proteins were separated by sodium dodecyl sulfate polyacrylamide gel electrophoresis (SDS-PAGE; 10%; Bio-Rad, Israel). […] Approximate molecular masses were determined by comparison with the migration of pre-stained protein standards (Bio-Rad). […] Intensity of the protein bands was quantified by Image J […] (NIH).

[20] = tested on: VEGF; test: Uterine VEGF protein (western blot), prolonged tamoxifen model; format: in vivo, mouse; conditions: tamoxifen 2.5 μg/mouse 5 days per week for one month
Method: as §3, §5

[21] = tested on: PEDF mRNA; test: PEDF mRNA level (qPCR) in ovaries of superovulated mice treated with DXR; format: in vivo, mouse; conditions: DXR 6 mg/kg IV vs saline; superovulated 7 weeks ICR female mice
Method: FIG. 1A is an illustration depicting the experimental setting: 7 weeks ICR female mice (n=5/group) were treated for superovulation with the standard pregnant mares' serum/human chorionic gonadotropin (PMSG/hCG) protocol [Ben-Aharon et al. Reproductive Biology and Endocrinology: RB&E (2010) 8: 20]. Twenty four hours post PMSG mice were administrated with DXR or saline (control). Ovaries were retrieved twenty four hours post hCG. […] Total RNA was extracted from the ovaries and changes in PEDF mRNA (relative quantification; RQ) level were measured by qPCR using specific primers for PEDF (SEQ ID NOs: 10-11); calibrated with HPRT (SEQ ID NOs: 6-7).
DXR damage was evaluated in 7 weeks ICR female mice following treatment for superovulation with pregnant mares' serum (PMSG, 7 IU) SC on day 0 and human chorionic gonadotropin (hCG, […]) SC on day 2. On day 1, mice were administered with DXR (6 mg/kg) or saline (control) IV. Mice ovaries were retrieved on day 3 (FIG. 1A). […]
Total RNA was isolated from various tissues (ovaries, eyes) or from granulosa cells, using Trizol reagent (Invitrogen) according to manufacturer's instructions, and quantified with the Nano-Drop spectrophotometer (ND-1000; Thermo Scientific). […] DNA was amplified using 1 μl RT reaction and 50 pmol gene-specific primers in ReadyMix™ mixture (Sigma). […]

OO [H2O2]
PEDF mRNA level in LH-15 cells [1]: significantly (P<0.01) reduced PEDF mRNA level, already at a concentration of 100 μM
SOD-1 mRNA level [2]: decreased
cells viability (MTT) [3]: statistically significant (P<0.05), dose dependent, decrease in cells viability
BAX level [4]: elevated
GPX-1 mRNA level [5]: decreased

CC/C(=C(\c1ccccc1)c1ccc(OCCN(C)C)cc1)c1ccccc1 [tamoxifen]
PNPLA2 level in uteri [6]: significantly increased
uterine PEDF protein level [7]: down-regulation of PEDF protein level
uterine weight [8]: increase in uterine weight
ERα mRNA expression in uteri [9]: up-regulated
PR mRNA level in uteri [10]: no significant effect
density of uterine blood vessels (CD34 staining) [11]: remarkable increase in the density of uterine blood vessels
PR expression in uteri [12]: no significant effect
PNPLA2 receptor mRNA level in uteri [13]: up-regulated
uterine weight [14]: dose dependent increase
Laminin receptor level in uteri [15]: did not change significantly
uterine PEDF protein expression [16]: down-regulated
ERα mRNA level in uteri [17]: up-regulated
Laminin receptor mRNA level in uteri [18]: up-regulated
uterine VEGF protein level [19]: up-regulated in a dose dependent manner
uterine VEGF protein level [20]: up-regulation of VEGF protein level

COc1cccc2c1C(=O)c1c(O)c3c(c(O)c1C2=O)C[C@@](O)(C(=O)CO)C[C@@H]3O[C@H]1C[C@H](N)[C@H](O)[C@H](C)O1 [DXR, Doxorubicin]
PEDF mRNA level in mice ovaries [21]: significantly (P<0.05) reduced PEDF mRNA level
